Data published in patent EP1247803A2, “Indolinone compounds suitable for modulation of protein kinases” (Sugen, Inc., priority 1996, dated 1998).

Key:
FLK-1 receptor = biological target: T1, FLK-1 receptor (Mus musculus, UniProt P35918); assay: FLK-1 ELISA (kinase activity of the FLK-1 receptor in FLK-1/NIH3T3 cells, VEGF stimulated); type: cell-based
T1 construct: expressed in transfected cells; host or cells: NIH3T3 C7#3
How it was run: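 NIH3T3 C7#3 cells expressing FLK-1 were seeded at 25.000 cells/well, serum-starved overnight in 0.1% FBS, then treated with compound for two hours at 37°C (final DMSO 0.5%) before VEGF stimulation. Receptor was captured on anti-rabbit IgG-coated ELISA plates bearing affinity-purified anti-FLK-1 antiserum.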

PDGF-R = PDGF-R (Homo sapiens, UniProt P09619); assay: PDGF-R ELISA; type: cell-based
Sequence of PDGF-R (P09619 33-1106, species assumed): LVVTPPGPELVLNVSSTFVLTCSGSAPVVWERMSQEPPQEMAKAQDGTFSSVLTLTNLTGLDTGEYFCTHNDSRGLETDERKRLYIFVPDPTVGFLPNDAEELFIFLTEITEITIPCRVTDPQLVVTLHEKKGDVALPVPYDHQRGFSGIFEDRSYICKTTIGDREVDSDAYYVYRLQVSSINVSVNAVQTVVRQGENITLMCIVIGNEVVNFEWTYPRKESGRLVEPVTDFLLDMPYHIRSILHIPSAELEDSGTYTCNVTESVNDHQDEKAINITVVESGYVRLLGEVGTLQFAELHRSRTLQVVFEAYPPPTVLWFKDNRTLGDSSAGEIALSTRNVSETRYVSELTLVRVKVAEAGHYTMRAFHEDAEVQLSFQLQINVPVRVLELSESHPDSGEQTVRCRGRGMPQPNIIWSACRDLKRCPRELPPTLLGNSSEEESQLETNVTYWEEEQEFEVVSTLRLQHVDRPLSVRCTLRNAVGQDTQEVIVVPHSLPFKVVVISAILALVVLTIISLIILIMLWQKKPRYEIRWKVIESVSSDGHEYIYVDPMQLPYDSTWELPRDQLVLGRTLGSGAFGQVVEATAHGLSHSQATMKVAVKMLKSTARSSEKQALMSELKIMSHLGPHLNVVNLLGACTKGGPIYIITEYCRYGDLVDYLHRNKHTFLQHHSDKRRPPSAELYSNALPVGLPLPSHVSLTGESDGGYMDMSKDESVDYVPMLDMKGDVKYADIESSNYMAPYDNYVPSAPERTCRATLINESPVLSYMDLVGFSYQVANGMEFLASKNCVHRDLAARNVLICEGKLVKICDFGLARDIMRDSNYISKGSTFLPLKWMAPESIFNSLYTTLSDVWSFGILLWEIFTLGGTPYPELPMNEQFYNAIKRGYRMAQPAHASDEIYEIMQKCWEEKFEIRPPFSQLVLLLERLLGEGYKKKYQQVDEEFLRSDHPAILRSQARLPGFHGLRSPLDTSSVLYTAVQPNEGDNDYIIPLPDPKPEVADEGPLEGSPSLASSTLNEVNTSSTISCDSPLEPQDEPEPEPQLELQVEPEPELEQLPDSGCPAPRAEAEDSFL
From the text: A PDGF-R ELISA is described in International Patent Publication No. WO 96/40116, published December 19, 1996 by Tang et al.

MET = MET biochemical kinase assay; design: species or system human; concentration or dose not given beside the values
How it was run: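 Colorimetric signal from an HRP-linked anti-phosphotyrosine antibody with TMB measures phosphate incorporated into immobilised MET. The receptor is pulled from lysates by a polyclonal antibody against its cytoplasmic domain, then reacts in ATP- and metal-containing buffer with test compound.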

T1 sequence (P35918 20-1345): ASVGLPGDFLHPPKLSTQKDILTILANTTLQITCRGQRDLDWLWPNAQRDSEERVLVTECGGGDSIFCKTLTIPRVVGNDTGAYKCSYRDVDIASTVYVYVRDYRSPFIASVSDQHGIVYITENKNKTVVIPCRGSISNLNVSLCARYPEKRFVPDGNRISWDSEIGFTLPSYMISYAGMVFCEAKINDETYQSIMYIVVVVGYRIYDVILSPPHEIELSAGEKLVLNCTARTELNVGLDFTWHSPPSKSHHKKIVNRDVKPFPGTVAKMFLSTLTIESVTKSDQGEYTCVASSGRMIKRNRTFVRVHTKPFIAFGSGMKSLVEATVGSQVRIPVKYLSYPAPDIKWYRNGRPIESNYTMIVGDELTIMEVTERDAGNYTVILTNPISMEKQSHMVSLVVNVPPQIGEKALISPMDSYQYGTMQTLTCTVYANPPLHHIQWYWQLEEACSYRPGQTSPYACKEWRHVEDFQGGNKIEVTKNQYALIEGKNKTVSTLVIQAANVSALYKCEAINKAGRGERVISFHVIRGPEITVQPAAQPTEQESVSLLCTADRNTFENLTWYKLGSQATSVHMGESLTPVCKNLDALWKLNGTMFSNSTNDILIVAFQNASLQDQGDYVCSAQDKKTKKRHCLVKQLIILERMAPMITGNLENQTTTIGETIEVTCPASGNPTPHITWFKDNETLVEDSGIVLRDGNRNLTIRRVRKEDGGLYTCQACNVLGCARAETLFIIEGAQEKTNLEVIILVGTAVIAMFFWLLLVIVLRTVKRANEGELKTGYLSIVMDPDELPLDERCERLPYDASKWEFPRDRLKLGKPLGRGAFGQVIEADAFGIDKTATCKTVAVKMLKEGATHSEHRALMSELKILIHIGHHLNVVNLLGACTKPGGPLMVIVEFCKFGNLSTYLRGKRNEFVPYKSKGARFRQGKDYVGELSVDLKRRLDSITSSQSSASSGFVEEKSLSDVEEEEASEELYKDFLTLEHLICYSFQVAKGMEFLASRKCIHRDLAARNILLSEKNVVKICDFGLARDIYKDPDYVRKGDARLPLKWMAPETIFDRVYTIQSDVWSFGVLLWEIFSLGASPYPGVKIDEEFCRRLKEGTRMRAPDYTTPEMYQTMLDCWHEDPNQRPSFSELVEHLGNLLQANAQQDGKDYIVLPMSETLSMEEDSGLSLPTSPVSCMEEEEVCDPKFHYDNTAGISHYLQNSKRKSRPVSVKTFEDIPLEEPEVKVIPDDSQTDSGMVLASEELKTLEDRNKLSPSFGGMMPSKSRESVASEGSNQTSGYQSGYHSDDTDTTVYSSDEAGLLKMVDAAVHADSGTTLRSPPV

SMILES	Fik Kinase %Inhibition (FLK-1 receptor) [%]	PDGF Kinase %Inhibition (PDGF-R) [%]	Met Kinase % Inhibition (MET) [%]
CNS(=O)(=O)c1ccc2c(c1)C(=Cc1cc(C)n[nH]1)C(=O)N2 [10725/D05]	2.3	10.7	24.5
COC(=O)Cc1c(Cl)[nH]c(C=C2C(=O)Nc3ccc(S(=O)(=O)N4CCOCC4)cc32)c1C(=O)OC [10725/F09]	6.8	28.4	48.5
CCOC(=O)c1[nH]c(C=C2C(=O)Nc3ccc(I)cc32)c(C(=O)OC)c1C [10726/B03]	11.1	16.4	81.1
COc1ccc(C=C2C(=O)Nc3c(Br)cc(Br)cc32)cc1 [10726/A11]	0.5	23.3	70.8
COC(=O)Cc1c(Cl)[nH]c(C=C2C(=O)Nc3ccc(S(=O)(=O)Nc4ccc(C(F)(F)F)cc4)cc32)c1C(=O)OC [10725/E09]	7.0	37.5	22.4
Cc1cc(C=C2C(=O)Nc3c(Br)cc(Br)cc32)cc(C(C)(C)C)c1O [10726/A04]	7.6	44.2	85.7
CNS(=O)(=O)c1ccc2c(c1)C(=Cc1ccc(C)o1)C(=O)N2 [10725/D04]	3.6	12.2	55.1
Cc1cn(C)cc1C=C1C(=O)Nc2ccc(I)cc21 [10726/B06]	11.3	34.1	76.1
Cc1c(Br)ccc2c1C(=Cc1sccc1Br)C(=O)N2 [10725/C02]	7.0	-5.1	6.3
COc1ccc(Br)c(C=C2C(=O)Nc3ccc(Br)c(C)c32)c1O [10725/C03]	2.0	19.3	72.9
Cc1c(Br)ccc2c1C(=Cc1ccc(Br)o1)C(=O)N2 [10726/C05]	4.0	25.2	58.0
Cc1cc(C=C2C(=O)Nc3ccc(I)cc32)cc(C(C)(C)C)c1O [10726/B04]	16.8	39.1	78.9
O=C1Nc2ccc(S(=O)(=O)N3CCOCC3)cc2C1=Cc1c(Br)cnn1-c1ccc(Cl)cc1 [10725/F10]	4.8	17.9	14.2
COc1ccc(C=C2C(=O)Nc3ccc(I)cc32)cc1 [10726/B11]	7.4	23.3	64.4
CNS(=O)(=O)c1ccc2c(c1)C(=Cc1c(Br)cnn1-c1ccc(Cl)cc1)C(=O)N2 [10725/D10]	9.0	43.8	27.8
COC(=O)Cc1c(Cl)[nH]c(C=C2C(=O)Nc3ccc(CCCl)cc32)c1C(=O)OC [10725/G09]	15.2	43.8	4.7
O=C1Nc2ccc(I)cc2C1=Cc1ccc(Br)o1 [10726/B05]	13.2	27.1	96.8
